By IC50 is commonly meant the midpoint of a concentration-inhibition curve. A higher IC50 goes with weaker potency in that assay. In general, Ki refers to a dissociation constant, usually derived from enzyme kinetics or from competition with a known ligand. Higher therefore signals a looser hold on the target.

Counter-ions that a name gives are not always drawn.

The source of these data is patent US20090082342A1, “N-SUBSTITUTED PIPERIDINE DERIVATIVES AS SEROTONIN RECEPTOR AGENTS” (Acadia Pharmaceuticals, Inc., priority 2007, published 2009).

What all share (type): cell-based
The target in test [1] is T1, 5-HT2C receptor (Homo sapiens, UniProt P28335).
T1 construct: expressed in transfected cells; host or cells: NIH3T3 cells, pSI mammalian expression vector
T1 sequence (P28335 33-458): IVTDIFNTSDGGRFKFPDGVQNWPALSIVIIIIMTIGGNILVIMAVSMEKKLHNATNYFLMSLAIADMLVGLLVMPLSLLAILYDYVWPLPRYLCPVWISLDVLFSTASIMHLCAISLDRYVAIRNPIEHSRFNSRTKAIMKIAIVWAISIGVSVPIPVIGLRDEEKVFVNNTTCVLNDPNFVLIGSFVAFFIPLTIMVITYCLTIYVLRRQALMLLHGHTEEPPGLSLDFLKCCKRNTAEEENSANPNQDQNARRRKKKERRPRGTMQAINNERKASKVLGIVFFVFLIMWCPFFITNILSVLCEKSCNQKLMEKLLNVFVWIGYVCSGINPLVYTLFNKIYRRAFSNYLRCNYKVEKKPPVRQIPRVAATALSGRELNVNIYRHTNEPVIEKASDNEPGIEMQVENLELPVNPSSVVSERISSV
Briefly: R-SAT functional receptor assay, inverse agonist activity at 5-HT2C. Here is the method: Receptor Selection and Amplification (R-SAT®) Assays. The functional receptor assay, Receptor Selection and Amplification Technology (R-SAT®), was used (with minor modifications from the procedure described previously (Brann, M. R. U.S. Pat. No. 5,707,798, 1998; Chem. Abstr. 1998, 128, 111548) to screen compounds for efficacy at the 5-HT2A receptor. Briefly, NIH3T3 cells were grown in 96 well tissue culture plates to 70-80% confluence. Cells were transfected for 12-16 h with plasmid DNAs using superfect (Qiagen Inc.) as per manufacturer's protocols. R-SAT's were generally performed with 50 ng/well of receptor and 20 ng/well of β-galactosidase plasmid DNA. All receptor and G-protein constructs used were in the pSI mammalian expression vector (Promega Inc) as described previously. The 5-HT2A or 5-HT2C receptor gene was amplified by nested PCR from brain cDNA using the oligodeoxynucleotides based on the published sequence (Saltzman et. al, Biochem. Biophys. Res. Comm. 1991, 181, 1469). For large-scale transfections, cells were transfected for 12-16 h, then trypsinized and frozen in DMSO. Frozen cells were later thawed, plated at 10,000-40,000 cells per well of a 96 well plate that contained drug. With both methods, cells were then grown in a humidified atmosphere with 5% ambient CO2 for five days. Media was then removed from the plates and marker gene activity was measured by the addition of the β-galactosidase substrate o-nitrophenyl β-D-galactopyranoside (ONPG, in PBS with 5% NP-40). The resulting colorimetric reaction was measured in a spectrophotometric plate reader (Titertek Inc.) at […]. All data were analyzed using the computer program XLFit (IDBSm). Efficacy is the percent maximal repression compared to repression by a control compound (ritanserin in the case of 5-HT2A). pIC50 is the negative of the log(IC50), where IC50 is the calculated concentration in Molar that produces 50% maximal repression. […]

Test [2] addresses T1, 5-HT2C receptor. Briefly: R-SAT functional receptor assay, antagonist activity at 5-HT2C. Here is the method: (§1) Receptor Selection and Amplification (R-SAT®) Assays. The functional receptor assay, Receptor Selection and Amplification Technology (R-SAT®), was used (with minor modifications from the procedure described previously (Brann, M. R. U.S. Pat. No. 5,707,798, 1998; Chem. Abstr. 1998, 128, 111548) to screen compounds for efficacy at the 5-HT2A receptor. Briefly, NIH3T3 cells were grown in 96 well tissue culture plates to 70-80% confluence. Cells were transfected for 12-16 h with plasmid DNAs using superfect (Qiagen Inc.) as per manufacturer's protocols. R-SAT's were generally performed with 50 ng/well of receptor and 20 ng/well of β-galactosidase plasmid DNA. All receptor and G-protein constructs used were in the pSI mammalian expression vector (Promega Inc) as described previously. The 5-HT2A or 5-HT2C receptor gene was amplified by nested PCR from brain cDNA using the oligodeoxynucleotides based on the published sequence (Saltzman et. al, Biochem. Biophys. Res. Comm. 1991, 181, 1469). For large-scale transfections, cells were transfected for 12-16 h, then trypsinized and frozen in DMSO. Frozen cells were later thawed, plated at 10,000-40,000 cells per well of a 96 well plate that contained drug. With both methods, cells were then grown in a humidified atmosphere with 5% ambient CO2 for five days. Media was then removed from the plates and marker gene activity was measured by the addition of the β-galactosidase substrate o-nitrophenyl β-D-galactopyranoside (ONPG, in PBS with 5% NP-40). The resulting colorimetric reaction was measured in a spectrophotometric plate reader (Titertek Inc.) at […]. All data were analyzed using the computer program XLFit (IDBSm). Efficacy is the percent maximal repression compared to repression by a control compound (ritanserin in the case of 5-HT2A). pIC50 is the negative of the log(IC50), where IC50 is the calculated concentration in Molar that produces 50% maximal repression. Various metabolites of N-(1-methylpiperidin-4-yl)-N-(4-fluorophenylmethyl)-N′-(4-(2-methylpropyloxy)phenylmethyl) carbamide, including the compounds of Formulae (I), (II), (III), (IV) and (V) as well as other metabolites, were assayed as described herein.

The target of test [3] is T2, 5-HT2A receptor (Homo sapiens, UniProt P28223).
T2 construct: expressed in transfected cells; host or cells: NIH3T3 cells, pSI mammalian expression vector
Briefly: R-SAT functional receptor assay, inverse agonist activity at 5-HT2A. Here is the method: as §1

Test [4] concerns the target T2, 5-HT2A receptor. Briefly: R-SAT functional receptor assay, antagonist activity at 5-HT2A. Here is the method: as §1

T2 sequence (P28223 whole entry): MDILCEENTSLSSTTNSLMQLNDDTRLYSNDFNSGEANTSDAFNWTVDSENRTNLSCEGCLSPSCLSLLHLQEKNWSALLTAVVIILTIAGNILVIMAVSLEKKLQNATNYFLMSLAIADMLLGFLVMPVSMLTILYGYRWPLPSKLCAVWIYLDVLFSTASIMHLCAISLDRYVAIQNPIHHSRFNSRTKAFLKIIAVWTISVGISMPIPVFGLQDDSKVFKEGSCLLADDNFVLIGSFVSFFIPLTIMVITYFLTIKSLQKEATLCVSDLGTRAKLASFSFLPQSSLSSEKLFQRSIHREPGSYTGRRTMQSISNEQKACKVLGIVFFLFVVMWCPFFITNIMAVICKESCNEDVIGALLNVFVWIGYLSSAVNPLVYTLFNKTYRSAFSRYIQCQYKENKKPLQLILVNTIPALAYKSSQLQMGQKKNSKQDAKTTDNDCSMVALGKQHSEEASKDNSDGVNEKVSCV

For `C[C@H](CO)COc1ccc(CNC(=O)N(Cc2ccc(F)cc2)C2CCN(C)CC2)cc1` [Formula (IV), N-(4-Fluorobenzyl)-N-(1-methyl-piperidin-4-yl)-N′-(4-(R)-[(3-hydroxy)-isobutoxy]benzyl)carbamide], the 50% inhibitory concentration (IC50) was 200 nM at 5-HT2C receptor [1] and 3.16 nM on 5-HT2A receptor [3]. This compound also had an inhibitory constant (Ki) at 5-HT2C receptor [2] of 158 nM.
For the compound `CN1CCC(N(Cc2ccc(F)cc2)C(=O)NCc2ccc(OCC(C)(C)O)cc2)CC1` [Formula (III), N-(4-Fluorobenzyl)-N-(1-methylpiperidin-4-yl)-N′-[4-(2-hydroxy)isobutoxybenzyl]carbamide Hydrochloride], the IC50 on 5-HT2C receptor [1] was 794 nM; at 5-HT2A receptor [3] it was 2 nM. Besides, the Ki at 5-HT2C receptor [2] is 158 nM; at 5-HT2A receptor [4] it was 1 nM.
The corresponding values for `CC(C)COc1ccc(CNC(=O)N(Cc2ccc(F)cc2)C2CC[N+](C)([O-])CC2)cc1` (centres unmarked) [Formula (V), N-(4-Fluorobenzyl)-N-(1-methyl-1-oxopiperidin-4-yl)-N′-(4-isobutoxybenzyl)carbamide] are 2000 nM, 31.6 nM, 398 nM and 31.6 nM.
`CN1CCC(N(Cc2ccc(F)cc2)C(=O)NCc2ccc(O)cc2)CC1` [Formula (I), N-(4-Fluorobenzyl)-N-(1-methylpiperidin-4-yl)-N′-(4-hydroxybenzyl)carbamide Hydrochloride]: the Ki on 5-HT2C receptor [2] is 316 nM; at 5-HT2A receptor [4], 12.6 nM. This compound also gave an IC50 at 5-HT2A receptor [3] of 31.6 nM.
The corresponding values for `CC(C)COc1ccc(CNC(=O)N(Cc2ccc(F)cc2)C2CCNCC2)cc1` [Formula (II), N-(4-Fluorobenzyl)-N-(piperidin-4-yl)-N′-(4-isobutoxybenzyl)carbamide Hydrochloride] are 100 nM, 1.26 nM and 2.51 nM.
